According to the NIST ThermoML archive (doi:10.1016/j.jct.2015.01.007):
± gives the expanded uncertainty stated by the source.

Assay: molar heat capacity at constant pressure
Conditions: 101.33 kPa

O=P([O-])([O-])[O-].[Fe+2].[Li+] [iron(II) lithium phosphate]
Conditions	molar heat capacity at constant pressure [J/K/mol]
2.03 K, Crystal 2, relaxation calorimetry	0.0162 ± 0.0013
2.2 K, Crystal 2, relaxation calorimetry	0.0187 ± 0.0015
2.38 K, Crystal 2, relaxation calorimetry	0.0224 ± 0.0018
2.58 K, Crystal 2, relaxation calorimetry	0.0243 ± 0.0019
2.8 K, Crystal 2, relaxation calorimetry	0.0271 ± 0.0021
3.04 K, Crystal 2, relaxation calorimetry	0.0309 ± 0.0024
3.29 K, Crystal 2, relaxation calorimetry	0.0325 ± 0.0026
3.56 K, Crystal 2, relaxation calorimetry	0.0401 ± 0.0032
3.86 K, Crystal 2, relaxation calorimetry	0.048 ± 0.0038
4.19 K, Crystal 2, relaxation calorimetry	0.0562 ± 0.0044
4.54 K, Crystal 2, relaxation calorimetry	0.059 ± 0.0046
4.92 K, Crystal 2, relaxation calorimetry	0.0709 ± 0.0056
5 K, Crystal 2, relaxation calorimetry	0.0481 ± 0.004
5.33 K, Crystal 2, relaxation calorimetry	0.0742 ± 0.0058
5.78 K, Crystal 2, relaxation calorimetry	0.0903 ± 0.0071
6.26 K, Crystal 2, relaxation calorimetry	0.101 ± 0.008
6.78 K, Crystal 2, relaxation calorimetry	0.12 ± 0.009
7.35 K, Crystal 2, relaxation calorimetry	0.138 ± 0.011
7.97 K, Crystal 2, relaxation calorimetry	0.173 ± 0.014
8.64 K, Crystal 2, relaxation calorimetry	0.22 ± 0.017
9.36 K, Crystal 2, relaxation calorimetry	0.276 ± 0.022
10 K, Crystal 2, relaxation calorimetry	0.3419 ± 0.027
10.14 K, Crystal 2, relaxation calorimetry	0.364 ± 0.036
10.23 K, Crystal 2, relaxation calorimetry	0.46 ± 0.042
10.75 K, Crystal 2, relaxation calorimetry	0.535 ± 0.042
11.26 K, Crystal 2, relaxation calorimetry	0.615 ± 0.048
11.77 K, Crystal 2, relaxation calorimetry	0.706 ± 0.055
12.28 K, Crystal 2, relaxation calorimetry	0.808 ± 0.063
12.8 K, Crystal 2, relaxation calorimetry	0.917 ± 0.072
13.31 K, Crystal 2, relaxation calorimetry	1.038 ± 0.082
13.83 K, Crystal 2, relaxation calorimetry	1.171 ± 0.092
14.34 K, Crystal 2, relaxation calorimetry	1.314 ± 0.1
14.85 K, Crystal 2, relaxation calorimetry	1.467 ± 0.12
15 K, Crystal 2, relaxation calorimetry	1.514 ± 0.12
15.36 K, Crystal 2, relaxation calorimetry	1.631 ± 0.13
15.88 K, Crystal 2, relaxation calorimetry	1.797 ± 0.14
16.39 K, Crystal 2, relaxation calorimetry	1.977 ± 0.15
16.9 K, Crystal 2, relaxation calorimetry	2.169 ± 0.17
17.41 K, Crystal 2, relaxation calorimetry	2.363 ± 0.18
17.93 K, Crystal 2, relaxation calorimetry	2.571 ± 0.2
18.44 K, Crystal 2, relaxation calorimetry	2.79 ± 0.22
18.95 K, Crystal 2, relaxation calorimetry	3.015 ± 0.24
19.47 K, Crystal 2, relaxation calorimetry	3.249 ± 0.26
19.98 K, Crystal 2, relaxation calorimetry	3.484 ± 0.27
20 K, Crystal 2, relaxation calorimetry	3.498 ± 0.27
20.49 K, Crystal 2, relaxation calorimetry	3.75 ± 0.15
21.01 K, Crystal 2, relaxation calorimetry	3.99 ± 0.16
21.51 K, Crystal 2, relaxation calorimetry	4.26 ± 0.17
22.03 K, Crystal 2, relaxation calorimetry	4.55 ± 0.19
22.54 K, Crystal 2, relaxation calorimetry	4.83 ± 0.2
23.05 K, Crystal 2, relaxation calorimetry	5.13 ± 0.21
23.56 K, Crystal 2, relaxation calorimetry	5.43 ± 0.22
24.08 K, Crystal 2, relaxation calorimetry	5.74 ± 0.23
24.59 K, Crystal 2, relaxation calorimetry	6.06 ± 0.25
25 K, Crystal 2, relaxation calorimetry	6.334 ± 0.26
25.1 K, Crystal 2, relaxation calorimetry	6.4 ± 0.26
25.61 K, Crystal 2, relaxation calorimetry	6.75 ± 0.28
26.13 K, Crystal 2, relaxation calorimetry	7.09 ± 0.29
26.64 K, Crystal 2, relaxation calorimetry	7.45 ± 0.3
27.15 K, Crystal 2, relaxation calorimetry	7.84 ± 0.32
27.67 K, Crystal 2, relaxation calorimetry	8.22 ± 0.34
28.18 K, Crystal 2, relaxation calorimetry	8.63 ± 0.35
28.69 K, Crystal 2, relaxation calorimetry	9.04 ± 0.37
29.2 K, Crystal 2, relaxation calorimetry	9.47 ± 0.39
29.71 K, Crystal 2, relaxation calorimetry	9.92 ± 0.4
30 K, Crystal 2, relaxation calorimetry	10.17 ± 0.41
30.22 K, Crystal 2, relaxation calorimetry	10.36 ± 0.42
30.73 K, Crystal 2, relaxation calorimetry	10.82 ± 0.44
31.24 K, Crystal 2, relaxation calorimetry	11.31 ± 0.46
31.76 K, Crystal 2, relaxation calorimetry	11.78 ± 0.48
32.27 K, Crystal 2, relaxation calorimetry	12.28 ± 0.5
32.78 K, Crystal 2, relaxation calorimetry	12.78 ± 0.52
33.29 K, Crystal 2, relaxation calorimetry	13.28 ± 0.54
33.8 K, Crystal 2, relaxation calorimetry	13.81 ± 0.56
34.31 K, Crystal 2, relaxation calorimetry	14.35 ± 0.58
34.82 K, Crystal 2, relaxation calorimetry	14.9 ± 0.61
35 K, Crystal 2, relaxation calorimetry	15.09 ± 0.61
35.34 K, Crystal 2, relaxation calorimetry	15.46 ± 0.63
35.85 K, Crystal 2, relaxation calorimetry	16.03 ± 0.65
37.02 K, Crystal 2, relaxation calorimetry	17.18 ± 0.7
38.89 K, Crystal 2, relaxation calorimetry	19.19 ± 0.78
40 K, Crystal 2, relaxation calorimetry	20.69 ± 0.84
40.75 K, Crystal 2, relaxation calorimetry	21.8 ± 0.89
42 K, Crystal 2, relaxation calorimetry	23.73 ± 0.96
42.62 K, Crystal 2, relaxation calorimetry	24.74 ± 1
44.48 K, Crystal 2, relaxation calorimetry	28.1 ± 1.1
45 K, Crystal 2, relaxation calorimetry	29.13 ± 1.2
45.5 K, Crystal 2, relaxation calorimetry	30.18 ± 1.2
45.72 K, Crystal 2, relaxation calorimetry	30.67 ± 1.2
45.92 K, Crystal 2, relaxation calorimetry	31.15 ± 1.3
46 K, Crystal 2, relaxation calorimetry	31.31 ± 1.3
46.14 K, Crystal 2, relaxation calorimetry	31.65 ± 1.3
46.34 K, Crystal 2, relaxation calorimetry	32.17 ± 1.3
46.55 K, Crystal 2, relaxation calorimetry	32.68 ± 1.3
46.75 K, Crystal 2, relaxation calorimetry	33.24 ± 1.4
46.97 K, Crystal 2, relaxation calorimetry	33.77 ± 1.4
47 K, Crystal 2, relaxation calorimetry	33.89 ± 1.4
47.16 K, Crystal 2, relaxation calorimetry	34.33 ± 1.4
47.38 K, Crystal 2, relaxation calorimetry	34.9 ± 1.4
47.58 K, Crystal 2, relaxation calorimetry	35.53 ± 1.4
47.8 K, Crystal 2, relaxation calorimetry	36.14 ± 1.5
47.99 K, Crystal 2, relaxation calorimetry	36.79 ± 1.5
48 K, Crystal 2, relaxation calorimetry	36.77 ± 1.5
48.2 K, Crystal 2, relaxation calorimetry	37.43 ± 1.5
48.4 K, Crystal 2, relaxation calorimetry	38.11 ± 1.6
48.62 K, Crystal 2, relaxation calorimetry	38.7 ± 1.6
48.82 K, Crystal 2, relaxation calorimetry	39.3 ± 1.6
49 K, Crystal 2, relaxation calorimetry	39.73 ± 1.6
49.03 K, Crystal 2, relaxation calorimetry	39.72 ± 1.6
49.22 K, Crystal 2, relaxation calorimetry	40.03 ± 1.6
49.24 K, Crystal 1, combination of DSC and relaxation calorimetry	39.99 ± 1.6
49.24 K, Crystal 2, relaxation calorimetry	39.99 ± 1.6
49.44 K, Crystal 1, relaxation calorimetry	39.73 ± 1.7
49.64 K, Crystal 1, relaxation calorimetry	38.83 ± 1.6
49.85 K, Crystal 1, relaxation calorimetry	36.64 ± 1.6
50 K, Crystal 1, combination of DSC and relaxation calorimetry	34.52 ± 1.4
50.05 K, Crystal 1, relaxation calorimetry	33.84 ± 1.4
50.27 K, Crystal 1, relaxation calorimetry	30.69 ± 1.3
50.47 K, Crystal 1, relaxation calorimetry	28.52 ± 1.2
50.69 K, Crystal 1, relaxation calorimetry	26.66 ± 1.1
50.89 K, Crystal 1, relaxation calorimetry	25.59 ± 1.1
51 K, Crystal 1, combination of DSC and relaxation calorimetry	25.15 ± 1
51.08 K, Crystal 1, relaxation calorimetry	24.86 ± 1
51.29 K, Crystal 1, relaxation calorimetry	24.3 ± 1
51.5 K, Crystal 1, relaxation calorimetry	23.89 ± 0.97
51.7 K, Crystal 1, relaxation calorimetry	23.58 ± 0.96
51.9 K, Crystal 1, relaxation calorimetry	23.36 ± 0.95
52 K, Crystal 1, combination of DSC and relaxation calorimetry	23.25 ± 0.95
52.12 K, Crystal 1, relaxation calorimetry	23.13 ± 0.94
52.32 K, Crystal 1, relaxation calorimetry	22.99 ± 0.93
52.53 K, Crystal 1, relaxation calorimetry	22.88 ± 0.93
52.72 K, Crystal 1, relaxation calorimetry	22.83 ± 0.93
52.94 K, Crystal 1, relaxation calorimetry	22.74 ± 0.92
53 K, Crystal 1, combination of DSC and relaxation calorimetry	22.72 ± 0.92
53.14 K, Crystal 1, relaxation calorimetry	22.69 ± 0.92
53.35 K, Crystal 1, relaxation calorimetry	22.66 ± 0.92
53.55 K, Crystal 1, relaxation calorimetry	22.66 ± 0.92
53.77 K, Crystal 1, relaxation calorimetry	22.66 ± 0.92
53.96 K, Crystal 1, relaxation calorimetry	22.66 ± 0.92
54 K, Crystal 1, combination of DSC and relaxation calorimetry	22.66 ± 0.92
54.18 K, Crystal 1, relaxation calorimetry	22.69 ± 0.92
54.38 K, Crystal 1, relaxation calorimetry	22.68 ± 0.92
54.59 K, Crystal 1, relaxation calorimetry	22.73 ± 0.92
54.79 K, Crystal 1, relaxation calorimetry	22.77 ± 0.92
55 K, Crystal 1, combination of DSC and relaxation calorimetry	22.82 ± 0.93
55 K, Crystal 1, relaxation calorimetry	22.82 ± 0.93
55.2 K, Crystal 1, relaxation calorimetry	22.85 ± 0.93
55.41 K, Crystal 1, relaxation calorimetry	22.91 ± 0.93
55.62 K, Crystal 1, relaxation calorimetry	22.95 ± 0.93
56.61 K, Crystal 1, relaxation calorimetry	23.28 ± 0.95
57.71 K, Crystal 1, relaxation calorimetry	23.69 ± 0.96
58.79 K, Crystal 1, relaxation calorimetry	24.17 ± 0.98
59.89 K, Crystal 1, relaxation calorimetry	24.67 ± 1
60 K, Crystal 1, combination of DSC and relaxation calorimetry	24.71 ± 1
60.97 K, Crystal 1, relaxation calorimetry	25.19 ± 1
62.06 K, Crystal 1, relaxation calorimetry	25.78 ± 1.1
63.15 K, Crystal 1, relaxation calorimetry	26.36 ± 1.1
64.24 K, Crystal 1, relaxation calorimetry	26.97 ± 1.1
65 K, Crystal 1, combination of DSC and relaxation calorimetry	27.41 ± 1.1
65.33 K, Crystal 1, relaxation calorimetry	27.59 ± 1.1
